Blank lines part the entries; values can stand above or below the molecule they belong to. The source made the active and inactive calls.
Assays:
[1] = cytotoxicity in HMLE control line with eGFP shRNA, dose response, counter-screen for HMLE_sh_ECad selective toxicity project, cell-based, HMLE_sh_eGFP, luminescence (AID 463074); format: functional, Homo sapiens;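 also: HMLE human mammary epithelial cells expressing control shRNA against eGFP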
[2] = Luminescence Cell-Based Dose Retest to Confirm Inhibitors of Cancer Stem Cells. [Related pubchem assays (depositor defined):AID2717, AID2721]; format: functional; conditions: Homo sapiens
HEK293 [3] = test: SAR Analysis of small molecule inhibitors of B-cell specific antigen receptor-induced NF-kB activation in a HEK-293T cell line using a luminescence assay - Set 2. [Related pubchem assays (depositor defined):AID435022, AID435025, AID489021]; format: functional, cell-based; conditions: Homo sapiens
[4] = cytotoxicity in HEK-293T cells, dose response, cytotoxicity control for BCR NF-kB inhibitor project, luminescence, B-cell screen hits (AID 489021); format: functional, cell-based;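 also: HEK-293T cells carrying an NF-kB luciferase reporter; cells exposed to compound for about 14 hours before viability readout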
Jurkat [5] = test: SAR Analysis of small molecule inhibitors of […] specific antigen receptor-induced NF-kB activation in a Jurkat cell line using a luminescence assay - Set 3. [Related pubchem assays (depositor defined):AID435022, AID435025, AID465]; format: functional, cell-based; conditions: Homo sapiens
HEK293 [6] = test: cytotoxicity in HEK293T NF-kB-Luc cells, SAR follow-up, cytotoxicity control for NF-kB activator project, cell-based, resazurin fluorescence (AID 493251); format: functional; conditions: Homo sapiens, HEK293
[7] = molecular target: Intestinal-type alkaline phosphatase (Homo sapiens, UniProt P09923); test: inhibition of human intestinal alkaline phosphatase – biochemical, dose response (AID 488876); format: functional
[8] = molecular target: Intestinal-type alkaline phosphatase (Mus musculus, UniProt P24822); test: PubChem AID 488785; format: functional
[9] = molecular target: T1, Calpain-2 catalytic subunit (Sus scrofa, UniProt P43367); test: pig calpain II inhibitor potency, dose response, biochemical, fluorogenic peptide substrate (AID 1420); format: functional
T1 sequence (P43367 whole entry): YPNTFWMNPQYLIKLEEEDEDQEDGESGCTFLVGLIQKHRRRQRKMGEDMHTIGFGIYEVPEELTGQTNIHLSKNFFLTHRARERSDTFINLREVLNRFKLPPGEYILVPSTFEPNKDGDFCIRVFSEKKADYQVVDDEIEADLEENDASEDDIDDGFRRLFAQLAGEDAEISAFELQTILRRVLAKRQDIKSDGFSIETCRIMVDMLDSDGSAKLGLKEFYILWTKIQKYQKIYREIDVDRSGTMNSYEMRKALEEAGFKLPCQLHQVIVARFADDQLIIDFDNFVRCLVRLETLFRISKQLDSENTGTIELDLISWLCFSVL

[10] = molecular target: T2, Alkaline phosphatase, tissue-nonspecific isozyme (Homo sapiens, UniProt P05186); test: TNAP enzyme inhibition by screening hits, dose response, selectivity assay for mouse IAP inhibitor project, biochemical, human TNAP, uHTS hits (AID 488906); format: functional
T2 sequence (P05186 whole entry): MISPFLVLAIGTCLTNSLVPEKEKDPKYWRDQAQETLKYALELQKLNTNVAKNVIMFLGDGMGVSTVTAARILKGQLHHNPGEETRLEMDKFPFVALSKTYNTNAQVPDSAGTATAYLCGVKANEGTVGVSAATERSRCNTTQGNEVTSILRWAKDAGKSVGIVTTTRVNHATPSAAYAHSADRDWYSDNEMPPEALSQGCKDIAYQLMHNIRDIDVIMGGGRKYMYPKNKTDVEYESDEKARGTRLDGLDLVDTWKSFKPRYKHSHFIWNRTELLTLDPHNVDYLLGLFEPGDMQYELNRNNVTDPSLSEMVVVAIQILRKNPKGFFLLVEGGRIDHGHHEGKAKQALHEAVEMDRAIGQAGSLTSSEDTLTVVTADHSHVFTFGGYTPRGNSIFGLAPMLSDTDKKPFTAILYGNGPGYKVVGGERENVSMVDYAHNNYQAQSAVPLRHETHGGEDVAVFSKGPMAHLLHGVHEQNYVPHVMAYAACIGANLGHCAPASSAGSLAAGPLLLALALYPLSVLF

HEK293 [11] = test: cells; conditions: Homo sapiens
HEK293 [12] = test: cells; conditions: Homo sapiens; remark: listed apart in the source
Jurkat [13] = test: antigen receptor-induced NF-kB inhibitors, dose response, Jurkat, luciferase reporter, luminescence, B- and T-cell (AID 489004); format: functional, cell-based; conditions: Homo sapiens;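 also: NF-kB luciferase reporter Jurkat cells stimulated with PMA plus ionomycin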
[14] = cytotoxicity in HEK-293T NF-kB-Luc cells, dose response, cytotoxicity control for B/T-cell NF-kB inhibitor project, cell-based, uHTS hits (AID 489019); format: functional;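 also: IC50 reflects cytotoxicity as loss of cell viability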
[15] = molecular target: Potassium voltage-gated channel subfamily KQT member 2 (Rattus norvegicus, UniProt O88943); test: KCNQ2 channel activators, analog series, SAR follow-up, automated patch clamp, KCNQ2-CHO cells (AID 493113); format: functional
Beta-galactosidase = Beta-galactosidase (Escherichia coli, UniProt Q8VNN2); test: beta-galactosidase enzyme inhibitors and activators, dose response, artefact control for CCR6 antagonist project, biochemical, E. coli enzyme, set 3 (AID 504712); format: functional
[16] = cytotoxicity toward NIH3T3 fibroblasts, dose response, counter-screen, cell-based, ATP luminescence, mouse fibroblasts (AID 2010); format: functional;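 also: cells exposed to compound for about 90 hours before reading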
[17] = inhibitors of intracellular T. cruzi replication, confirmation, NIH3T3 host cells, beta-gal luminescence (AID 2044); format: functional, cell-based;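 also: intracellular parasites grown in NIH/3T3 mouse fibroblasts as host cells; luminescent beta-galactosidase reporter signal from transgenic T. cruzi replicating inside host cells; inhibitors lower the luminescence signal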
Apelin receptor = Apelin receptor (Homo sapiens, UniProt P35414); test: APJ beta-arrestin recruitment antagonism, SAR follow-up, selectivity assay for CCR6 antagonist project, cell-based, luminescent, enzyme-fragment complementation (AID 588359); format: functional
[18] = molecular target: Voltage-dependent T-type calcium channel subunit alpha-1H (Homo sapiens, UniProt O95180); test: Cav3.2 T-type channel blockers, cell-based, SynthLib3 library, HEK293 Cav3.2, fluorescence (AID 493041); format: functional
Cysteine protease ATG4B = molecular target: T3, Cysteine protease ATG4B (Homo sapiens, UniProt Q9Y4P1); format: functional;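 also: Fluorescence-based dose-response confirmation assay measuring inhibition of ATG4B activity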
T3 sequence (Q9Y4P1 whole entry): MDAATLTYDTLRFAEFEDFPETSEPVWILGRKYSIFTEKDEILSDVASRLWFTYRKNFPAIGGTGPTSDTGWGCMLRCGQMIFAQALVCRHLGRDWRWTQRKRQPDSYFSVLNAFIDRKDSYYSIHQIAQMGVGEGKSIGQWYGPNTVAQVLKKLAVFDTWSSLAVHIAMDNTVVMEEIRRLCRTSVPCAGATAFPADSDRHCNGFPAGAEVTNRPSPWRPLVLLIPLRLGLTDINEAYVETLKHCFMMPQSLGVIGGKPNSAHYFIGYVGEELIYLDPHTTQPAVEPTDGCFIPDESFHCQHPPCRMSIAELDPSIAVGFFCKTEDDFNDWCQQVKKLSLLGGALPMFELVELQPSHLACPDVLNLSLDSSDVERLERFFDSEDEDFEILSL

Troponin, cardiac muscle = Troponin, cardiac muscle (Homo sapiens, UniProt P19429+P45379+P63316); test: Fluorescence-based biochemical high throughput dose response assay for activators of the calcium sensitivity of cardiac Regulated Thin Filaments (RTF). [Related pubchem assays (depositor defined):AID493008, AID493018, AID504382, AID504383]; format: protein-complex assay
Phospholipase A2 = Phospholipase A2 (Homo sapiens, UniProt P04054); format: functional;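 also: confirmatory dose-response counterscreen on phospholipase A2, testing hits that came from an ultra-high-throughput screen for ATG4B inhibitors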
A-375 [19] = test: MITF: Counter assay: A375 proliferation Measured in Cell-Based System Using Plate Reader - 2084-03_Inhibitor_Dose_DryPowder_Activity. [Related pubchem assays (depositor defined):AID488944]; format: functional; conditions: Homo sapiens
A-375 [20] = test: A375 melanoma cell viability reduction, dose response, counter-screen for MITF modulator project, cherry-pick samples, set 2 (AID 540335); format: functional, cell-based; conditions: Homo sapiens
[21] = molecular target: T4, Microphthalmia-associated transcription factor (Homo sapiens, UniProt O75030); test: TRPM1 promoter luciferase signal decrease, dose response, MITF inhibitor project, cell-based, SK-MEL-5, cherry-picked, set 3 (AID 493073); format: functional
T4 sequence (O75030 whole entry): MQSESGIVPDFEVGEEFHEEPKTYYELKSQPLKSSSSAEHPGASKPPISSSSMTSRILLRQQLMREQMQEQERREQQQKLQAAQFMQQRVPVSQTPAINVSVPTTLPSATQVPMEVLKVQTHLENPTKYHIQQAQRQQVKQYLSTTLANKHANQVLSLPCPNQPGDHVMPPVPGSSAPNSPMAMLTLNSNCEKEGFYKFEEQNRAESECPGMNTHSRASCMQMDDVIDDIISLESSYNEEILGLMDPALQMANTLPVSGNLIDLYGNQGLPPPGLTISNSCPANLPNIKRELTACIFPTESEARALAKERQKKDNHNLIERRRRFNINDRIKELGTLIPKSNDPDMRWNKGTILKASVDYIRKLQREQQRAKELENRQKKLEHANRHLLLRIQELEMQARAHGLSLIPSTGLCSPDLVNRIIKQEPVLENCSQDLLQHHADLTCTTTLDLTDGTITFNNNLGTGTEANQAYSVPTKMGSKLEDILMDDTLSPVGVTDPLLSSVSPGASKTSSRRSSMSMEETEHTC

Sequence of Potassium voltage-gated channel subfamily KQT member 2 (O88943 whole entry): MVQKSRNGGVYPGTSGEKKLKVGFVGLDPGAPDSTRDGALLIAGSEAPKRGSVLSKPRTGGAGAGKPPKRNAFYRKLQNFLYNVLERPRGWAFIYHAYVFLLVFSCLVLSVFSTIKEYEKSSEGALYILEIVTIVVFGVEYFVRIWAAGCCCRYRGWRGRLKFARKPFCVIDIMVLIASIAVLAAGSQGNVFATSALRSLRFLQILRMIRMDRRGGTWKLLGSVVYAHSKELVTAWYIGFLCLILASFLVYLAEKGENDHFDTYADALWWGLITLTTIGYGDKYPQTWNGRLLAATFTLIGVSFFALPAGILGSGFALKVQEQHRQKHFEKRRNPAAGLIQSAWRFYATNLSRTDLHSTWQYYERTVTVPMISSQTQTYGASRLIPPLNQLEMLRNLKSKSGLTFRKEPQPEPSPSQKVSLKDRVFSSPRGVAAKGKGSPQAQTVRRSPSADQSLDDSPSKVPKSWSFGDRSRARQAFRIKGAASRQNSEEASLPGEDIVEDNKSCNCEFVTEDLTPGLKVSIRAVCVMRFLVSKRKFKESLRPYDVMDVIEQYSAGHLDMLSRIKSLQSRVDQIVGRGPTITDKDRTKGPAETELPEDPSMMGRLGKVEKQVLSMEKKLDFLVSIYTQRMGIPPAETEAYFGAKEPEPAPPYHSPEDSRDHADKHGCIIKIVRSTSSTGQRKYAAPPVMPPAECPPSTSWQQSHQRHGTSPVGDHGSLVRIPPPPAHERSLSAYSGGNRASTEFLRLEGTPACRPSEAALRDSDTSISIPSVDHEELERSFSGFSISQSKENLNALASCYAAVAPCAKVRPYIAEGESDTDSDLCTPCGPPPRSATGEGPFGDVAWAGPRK
Sequence of Apelin receptor (P35414 whole entry, the tested form may be a part): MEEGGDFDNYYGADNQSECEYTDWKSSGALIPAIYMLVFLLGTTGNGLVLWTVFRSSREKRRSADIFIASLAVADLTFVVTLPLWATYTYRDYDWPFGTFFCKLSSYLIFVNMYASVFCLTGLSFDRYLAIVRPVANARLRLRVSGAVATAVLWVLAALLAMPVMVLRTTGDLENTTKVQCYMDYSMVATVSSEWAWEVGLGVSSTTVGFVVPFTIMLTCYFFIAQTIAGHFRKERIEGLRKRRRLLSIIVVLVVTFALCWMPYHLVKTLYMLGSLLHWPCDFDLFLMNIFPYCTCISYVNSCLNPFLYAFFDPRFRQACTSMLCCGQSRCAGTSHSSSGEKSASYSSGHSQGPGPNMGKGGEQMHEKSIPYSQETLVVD
Sequence of Voltage-dependent T-type calcium channel subunit alpha-1H (O95180 whole entry): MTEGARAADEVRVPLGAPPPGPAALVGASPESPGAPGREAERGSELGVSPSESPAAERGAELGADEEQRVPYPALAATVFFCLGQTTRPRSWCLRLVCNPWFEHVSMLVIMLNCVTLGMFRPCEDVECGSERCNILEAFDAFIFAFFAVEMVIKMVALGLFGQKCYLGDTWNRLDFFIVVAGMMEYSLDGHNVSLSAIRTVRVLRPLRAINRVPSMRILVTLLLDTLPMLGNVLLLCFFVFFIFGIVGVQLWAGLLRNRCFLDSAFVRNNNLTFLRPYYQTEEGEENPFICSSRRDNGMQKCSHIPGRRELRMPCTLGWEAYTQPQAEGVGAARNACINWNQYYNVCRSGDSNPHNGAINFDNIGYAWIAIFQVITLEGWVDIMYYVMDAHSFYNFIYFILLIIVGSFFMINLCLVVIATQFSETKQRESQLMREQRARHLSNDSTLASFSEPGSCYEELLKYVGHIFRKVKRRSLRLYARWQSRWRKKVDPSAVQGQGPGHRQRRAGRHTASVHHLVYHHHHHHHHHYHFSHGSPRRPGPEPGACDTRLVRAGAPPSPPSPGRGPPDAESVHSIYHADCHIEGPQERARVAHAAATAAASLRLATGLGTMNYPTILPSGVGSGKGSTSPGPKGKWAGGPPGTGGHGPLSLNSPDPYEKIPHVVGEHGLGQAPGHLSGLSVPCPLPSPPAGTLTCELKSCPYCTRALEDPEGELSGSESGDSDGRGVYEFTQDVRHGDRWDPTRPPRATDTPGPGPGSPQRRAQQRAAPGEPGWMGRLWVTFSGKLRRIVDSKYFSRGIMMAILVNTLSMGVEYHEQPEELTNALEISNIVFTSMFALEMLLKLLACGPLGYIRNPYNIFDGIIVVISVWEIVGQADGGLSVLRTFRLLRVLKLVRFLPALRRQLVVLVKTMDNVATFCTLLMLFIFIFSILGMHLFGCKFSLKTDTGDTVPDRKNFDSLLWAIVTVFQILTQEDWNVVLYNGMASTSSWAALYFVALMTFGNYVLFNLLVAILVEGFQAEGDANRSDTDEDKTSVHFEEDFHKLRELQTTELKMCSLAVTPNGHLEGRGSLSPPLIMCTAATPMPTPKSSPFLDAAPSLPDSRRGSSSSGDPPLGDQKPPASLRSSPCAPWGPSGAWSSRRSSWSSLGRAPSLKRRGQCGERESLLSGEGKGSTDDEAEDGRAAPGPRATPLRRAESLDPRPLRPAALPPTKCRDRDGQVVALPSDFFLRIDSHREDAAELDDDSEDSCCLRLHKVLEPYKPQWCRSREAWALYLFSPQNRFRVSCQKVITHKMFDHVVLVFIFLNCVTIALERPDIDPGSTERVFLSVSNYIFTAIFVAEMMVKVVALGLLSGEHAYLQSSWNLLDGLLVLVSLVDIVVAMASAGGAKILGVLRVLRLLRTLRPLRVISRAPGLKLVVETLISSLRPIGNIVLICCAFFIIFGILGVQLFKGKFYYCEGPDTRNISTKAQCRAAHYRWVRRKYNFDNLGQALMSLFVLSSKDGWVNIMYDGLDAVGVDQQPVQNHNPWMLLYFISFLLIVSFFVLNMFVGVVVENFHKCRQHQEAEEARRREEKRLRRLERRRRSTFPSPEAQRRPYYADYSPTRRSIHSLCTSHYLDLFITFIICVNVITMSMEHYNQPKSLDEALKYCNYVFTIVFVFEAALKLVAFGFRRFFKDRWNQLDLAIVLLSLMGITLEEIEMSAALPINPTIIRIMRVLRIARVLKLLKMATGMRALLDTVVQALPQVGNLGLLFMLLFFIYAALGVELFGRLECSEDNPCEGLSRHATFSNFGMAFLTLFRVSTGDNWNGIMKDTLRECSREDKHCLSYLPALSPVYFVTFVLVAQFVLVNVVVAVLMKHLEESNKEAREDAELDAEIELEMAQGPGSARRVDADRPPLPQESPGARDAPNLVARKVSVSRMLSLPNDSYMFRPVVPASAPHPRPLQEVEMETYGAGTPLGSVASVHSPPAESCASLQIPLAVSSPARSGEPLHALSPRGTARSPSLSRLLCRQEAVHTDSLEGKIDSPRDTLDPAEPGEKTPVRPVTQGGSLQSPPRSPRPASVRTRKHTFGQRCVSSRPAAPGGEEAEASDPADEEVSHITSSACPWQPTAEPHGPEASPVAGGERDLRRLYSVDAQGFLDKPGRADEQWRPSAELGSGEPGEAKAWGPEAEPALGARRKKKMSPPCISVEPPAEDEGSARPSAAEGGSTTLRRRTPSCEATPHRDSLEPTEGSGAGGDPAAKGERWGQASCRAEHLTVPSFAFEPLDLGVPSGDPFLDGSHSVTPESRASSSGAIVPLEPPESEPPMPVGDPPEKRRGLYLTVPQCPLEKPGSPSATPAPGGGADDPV
Sequence of Intestinal-type alkaline phosphatase (Homo sapiens, UniProt P09923) (P09923 whole entry): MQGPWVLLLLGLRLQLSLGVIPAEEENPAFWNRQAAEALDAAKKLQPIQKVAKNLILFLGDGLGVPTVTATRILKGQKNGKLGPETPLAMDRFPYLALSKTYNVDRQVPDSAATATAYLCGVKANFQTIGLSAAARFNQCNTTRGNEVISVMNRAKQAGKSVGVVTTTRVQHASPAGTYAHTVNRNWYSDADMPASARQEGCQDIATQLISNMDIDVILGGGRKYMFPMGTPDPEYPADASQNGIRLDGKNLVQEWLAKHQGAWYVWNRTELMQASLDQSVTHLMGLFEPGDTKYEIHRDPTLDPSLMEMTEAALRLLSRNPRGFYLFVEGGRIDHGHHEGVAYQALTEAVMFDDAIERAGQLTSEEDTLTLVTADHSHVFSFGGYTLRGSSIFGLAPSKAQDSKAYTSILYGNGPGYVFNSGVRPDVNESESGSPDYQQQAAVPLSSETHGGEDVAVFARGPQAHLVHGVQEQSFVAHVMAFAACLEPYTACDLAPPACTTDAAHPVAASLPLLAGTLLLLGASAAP
Sequence of Intestinal-type alkaline phosphatase (Mus musculus, UniProt P24822) (P24822 whole entry): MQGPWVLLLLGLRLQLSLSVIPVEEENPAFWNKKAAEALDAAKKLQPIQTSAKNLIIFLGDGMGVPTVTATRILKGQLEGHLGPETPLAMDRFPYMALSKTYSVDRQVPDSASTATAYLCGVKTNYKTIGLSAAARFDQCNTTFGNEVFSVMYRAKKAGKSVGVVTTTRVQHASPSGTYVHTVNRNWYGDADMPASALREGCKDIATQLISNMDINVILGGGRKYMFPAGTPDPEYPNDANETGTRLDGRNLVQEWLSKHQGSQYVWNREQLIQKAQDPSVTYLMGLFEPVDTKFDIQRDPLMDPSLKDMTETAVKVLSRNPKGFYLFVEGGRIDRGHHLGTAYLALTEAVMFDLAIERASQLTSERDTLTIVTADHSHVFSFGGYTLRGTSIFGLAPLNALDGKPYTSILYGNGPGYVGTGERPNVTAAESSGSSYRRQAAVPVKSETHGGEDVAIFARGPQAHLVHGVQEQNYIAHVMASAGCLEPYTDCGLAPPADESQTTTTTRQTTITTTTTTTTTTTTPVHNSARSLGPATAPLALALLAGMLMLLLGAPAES
Sequence of Phospholipase A2 (P04054 whole entry): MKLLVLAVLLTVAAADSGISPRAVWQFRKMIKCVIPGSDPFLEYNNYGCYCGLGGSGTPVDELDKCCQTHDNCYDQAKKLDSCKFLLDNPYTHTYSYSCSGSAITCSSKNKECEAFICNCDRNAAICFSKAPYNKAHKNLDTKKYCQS

Compound: COc1cc(-c2noc(C)c2C#Cc2ccc(N)cc2)cc(OC)c1OC
AC50 [1]: 8 µM (inconclusive)
AC50 [2]: 0.219 µM (active)

Compound: CSc1ccc(-c2nc(CSCC(=O)NC3CC3)c(C)o2)cc1
IC50 (HEK293 [3]): 49.7 µM (inactive)
IC50 [4]: > 80 µM (inactive)
IC50 (Jurkat [5]): > 80 µM (inactive)
IC50 (HEK293 [6]): > 80 µM (inactive)

IC50 [7]: > 100 µM (inactive)
IC50 [8]: 12.2 µM (active)
IC50 [9]: 2.69 µM (not active)
IC50 [10]: > 100 µM (inactive)
Compound: O=C(Nc1ccc(Cl)cc1)NC1CCCCC1Cc1ccco1 (stereo unspecified)

Compound: C=CCO/C(O)=C1\C(C)=NC(SCC(=O)Nc2nccs2)=C(C#N)C1c1ccc(Cl)cc1 (stereo unspecified)
EC50 (HEK293 [11]): > 59.6 µM (inactive)
EC50 (HEK293 [12]): > 59.6 µM (inactive)

Compound: O=C(NCCNCCO)C1(C(F)(F)F)C/C(=C\CCO)CCCO1 (stereo unspecified)
IC50 (Jurkat [13]): > 80 µM (inactive)
IC50 [14]: > 80 µM (inactive)

EC50 [15]: 0.22 µM (active)
Compound: Cc1ccc(NC(=O)C2CC3CCC2C3)c(C)c1 (stereo unspecified)

Compound: O=C(CSc1cccc2cccnc12)Nc1ccc(S(=O)(=O)N2CCOCC2)cc1
IC50 (Beta-galactosidase): > 66.6 µM (inactive)
EC50 [16]: 7.88 µM (active)
EC50 [17]: 1.58 µM (active)
IC50 (Apelin receptor): 11 µM (active)

EC50 [18]: 6.4 µM (active)
Compound: O=C(NC1CCC2CN(CC3CCCC3)CC21)c1cc(Cl)cc(Cl)c1 (stereo unspecified)

Compound: Cc1cc(C=C2C(=O)c3ccccc3C2=O)c(C)n1-c1ccccc1
IC50 (Cysteine protease ATG4B): 11 µM (active)
EC50 (Troponin, cardiac muscle): > 7.94 µM (active)
IC50 (Phospholipase A2): 6.96 µM (active)
AC50 (A-375 [19]): > 11 µM (active)
AC50 (A-375 [20]): > 11 µM (active)
AC50 [21]: 3.78 µM (active)

— ChEMBL document CHEMBL1201862, “PubChem BioAssay data set” (2004)
